{"source": "patent US9889094B2", "about": "“Particle size reduction of an antimuscarinic compound” (CHIESI FARMACEUTICI S.p.A., priority 2013, dated 2018)", "key": {"[1]": {"assay": "Scanning Electron Microscopy (SEM) of particles", "format": "physicochemical", "settings": "after the homogenization step, Example 1 (2H,3H-decafluoropentane); platelet-like particles"}, "[2]": {"assay": "Drying and re-dispersion after wet bead milling in acetone (comparative example)", "format": "physicochemical", "settings": "wet bead milled in acetone, 200 rpm, 60 minutes; dried at 25° C. under low vacuum; white to off-white solid cake", "procedure": "The vessel was sealed and the suspension homogenized into the planetary mill apparatus disclosed in WO 2007/020407, which is incorporated herein by reference in its entirety, at a disc speed of 200 rpm for 60 minutes at ambient temperature and pressure. After 60 minutes, the resulting drug suspension is separated from the milling media by filtering through a nylon mesh and the resulting drug suspension loaded into a drying tray."}, "[3]": {"assay": "Specific surface area by BET nitrogen adsorption", "format": "physicochemical", "settings": "Example 1 powder; for BET SSA: storage 22±2° C., 60% relative humidity", "procedure": "Advantageously, the specific surface area of the obtained particles upon drying and sieving, is from to 8 m^2/g, advantageously from to 7 m^2/g, preferably from 3 to 6 m^2/g. The Specific Surface Area is determined by Brunauer-Emmett-Teller (BET) nitrogen adsorption method according to a procedure known in the art.\nAlternatively, the physical stability may be measured using the specific surface area of the drug particles analysed by adsorption analysis, BET surface measurement, according to a method known to the skilled person.\nSpecific surface area (SSA) of the dried and sieved particles, analyzed by BET nitrogen adsorption method, was determined to be of about 4.3 m^2/g."}, "[4]": {"assay": "Crystallinity / polymorphic form by DVS", "format": "physicochemical", "settings": "Example 4 final product (dichloromethane) compared to the initial coarse drug"}, "[5]": {"assay": "Crystallinity / polymorphic form by X-ray powder diffraction and DSC", "format": "physicochemical", "settings": "for XRD: Example 1 powder, storage 22±2° C., 60% relative humidity"}, "[6]": {"settings": "Example 1 powder (2H,3H-decafluoropentane), storage 22±2° C., 60% relative humidity, time 0"}, "[7]": {"settings": "Example 1 powder, storage 22±2° C., 60% relative humidity, 1 W"}, "[8]": {"settings": "Example 1 powder, storage 22±2° C., 60% relative humidity, 2 W"}, "[9]": {"settings": "Example 1 powder, storage 22±2° C., 60% relative humidity, 3 M"}, "[10]": {"settings": "Example 1 powder, storage 22±2° C., 60% relative humidity, 4 W"}, "[11]": {"settings": "Example 4 powder (dichloromethane), time 0"}, "[12]": {"settings": "Example 5 powder (perfluoroheptane isomer mixture), 45 minutes processing, time 0"}}, "note": "Read-outs that look alike come from different tables or passages of the source.", "data": [{"smiles": "C[N+]1(C)CCC(OC(=O)C(O)(c2ccccc2)C2CCCC2)C1", "note": "(racemic) [rac-glycopyrronium bromide, (3S,2′R), (3R,2′S)-3-[(cyclopentylhydroxyphenylacetyl)oxy]-1,1-dimethylpyrrolidinium bromide]", "values": [{"measurement": "average particle size by SEM", "setting": "[1]", "value": "below 5 μm"}, {"measurement": "re-dispersibility of dried product", "setting": "[2]", "value": "could not be re-dispersed under mechanical agitation"}, {"measurement": "Specific surface area (SSA)", "setting": "[3]; dried and sieved particles", "value": "about 4.3 m^2/g"}, {"measurement": "BET SSA", "setting": "[3]; 1 W", "value": 4.198, "unit": "m^2/g"}, {"measurement": "BET SSA", "setting": "[3]; 2 W", "value": 4.210, "unit": "m^2/g"}, {"measurement": "BET SSA", "setting": "[3]; 3 M", "value": 4.00, "unit": "m^2/g"}, {"measurement": "BET SSA", "setting": "[3]; 4 W", "value": 4.086, "unit": "m^2/g"}, {"measurement": "BET SSA", "setting": "[3]; time 0", "value": 4.326, "unit": "m^2/g"}, {"measurement": "change in degree of crystallinity or polymorphic form (DVS)", "setting": "[4]", "value": "no change in degree of crystallinity or polymorphic form"}, {"measurement": "change in degree of crystallinity or polymorphic form (XPRD and DSC)", "setting": "[5]; Example 1 final product compared to the initial coarse drug", "value": "no change in degree of crystallinity or polymorphic form"}, {"measurement": "XRD", "setting": "[5]; 4 W", "value": "Crystalline"}, {"measurement": "XRD", "setting": "[5]; time 0", "value": "Crystalline"}, {"measurement": "PSD d(v0.1)", "setting": "[6]", "value": 0.71}, {"measurement": "PSD d(v0.5)", "setting": "[6]", "value": 1.85}, {"measurement": "PSD d(v0.9)", "setting": "[6]", "value": 4.77}, {"measurement": "d(v0.5)", "setting": "Example 1 powder after micronization and drying (2H,3H-decafluoropentane)", "value": 1.85, "unit": "μm"}, {"measurement": "change of particle size upon storage", "setting": "Example 1 powder, storage 22±2° C., 60% relative humidity, up to 3 months", "value": "does not significantly change"}, {"measurement": "PSD d(v0.1)", "setting": "[7]", "value": 0.72}, {"measurement": "PSD d(v0.5)", "setting": "[7]", "value": 1.92}, {"measurement": "PSD d(v0.9)", "setting": "[7]", "value": 5.03}, {"measurement": "PSD d(v0.1)", "setting": "[8]", "value": 0.72}, {"measurement": "PSD d(v0.5)", "setting": "[8]", "value": 1.88}, {"measurement": "PSD d(v0.9)", "setting": "[8]", "value": 4.95}, {"measurement": "PSD d(v0.1)", "setting": "[9]", "value": 0.75}, {"measurement": "PSD d(v0.5)", "setting": "[9]", "value": 2.07}, {"measurement": "PSD d(v0.9)", "setting": "[9]", "value": 5.26}, {"measurement": "PSD d(v0.1)", "setting": "[10]", "value": 0.72}, {"measurement": "PSD d(v0.5)", "setting": "[10]", "value": 1.93}, {"measurement": "PSD d(v0.9)", "setting": "[10]", "value": 4.97}, {"measurement": "PSD d(v0.1)", "setting": "[11]", "value": 0.80}, {"measurement": "PSD d(v0.5)", "setting": "[11]", "value": 2.06}, {"measurement": "PSD d(v0.9)", "setting": "[11]", "value": 6.46}, {"measurement": "d(v0.5)", "setting": "Example 4 powder after micronization and drying (dichloromethane)", "value": 2.06, "unit": "μm"}, {"measurement": "PSD d(v0.1)", "setting": "[12]", "value": 0.66}, {"measurement": "PSD d(v0.5)", "setting": "[12]", "value": 1.70}, {"measurement": "PSD d(v0.9)", "setting": "[12]", "value": 4.31}]}]}
